{"source": "paper PMC4068829", "about": "(Journal of medicinal chemistry, 2013)", "key": {"human MATE2-K": {"biological_target": "human MATE2-K (Homo sapiens, UniProt Q86VL8)", "sequence (Q86VL8 1-566 isoform Q86VL8-3)": "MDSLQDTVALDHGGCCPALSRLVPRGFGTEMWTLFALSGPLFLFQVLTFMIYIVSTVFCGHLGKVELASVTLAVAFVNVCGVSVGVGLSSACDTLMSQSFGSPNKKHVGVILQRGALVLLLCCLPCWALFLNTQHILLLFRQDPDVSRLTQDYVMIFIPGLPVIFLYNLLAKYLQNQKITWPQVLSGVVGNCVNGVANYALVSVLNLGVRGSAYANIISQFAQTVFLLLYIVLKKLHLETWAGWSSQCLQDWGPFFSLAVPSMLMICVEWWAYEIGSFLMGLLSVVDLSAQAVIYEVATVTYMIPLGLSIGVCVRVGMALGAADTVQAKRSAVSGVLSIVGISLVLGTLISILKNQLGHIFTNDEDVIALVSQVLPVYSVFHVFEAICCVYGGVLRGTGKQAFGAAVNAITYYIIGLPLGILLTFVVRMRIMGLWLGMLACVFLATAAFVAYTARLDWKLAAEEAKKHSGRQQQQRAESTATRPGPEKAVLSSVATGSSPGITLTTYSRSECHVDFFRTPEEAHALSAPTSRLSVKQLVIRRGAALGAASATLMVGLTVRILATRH", "format": "cell-based", "details": "for did not inhibit MATE2-K up to: highest concentration without inhibition, data not shown"}, "MATE1 [1]": {"biological_target": "T1, MATE1 (Homo sapiens, UniProt Q96FL8)", "T1 sequence (Q96FL8 1-570)": "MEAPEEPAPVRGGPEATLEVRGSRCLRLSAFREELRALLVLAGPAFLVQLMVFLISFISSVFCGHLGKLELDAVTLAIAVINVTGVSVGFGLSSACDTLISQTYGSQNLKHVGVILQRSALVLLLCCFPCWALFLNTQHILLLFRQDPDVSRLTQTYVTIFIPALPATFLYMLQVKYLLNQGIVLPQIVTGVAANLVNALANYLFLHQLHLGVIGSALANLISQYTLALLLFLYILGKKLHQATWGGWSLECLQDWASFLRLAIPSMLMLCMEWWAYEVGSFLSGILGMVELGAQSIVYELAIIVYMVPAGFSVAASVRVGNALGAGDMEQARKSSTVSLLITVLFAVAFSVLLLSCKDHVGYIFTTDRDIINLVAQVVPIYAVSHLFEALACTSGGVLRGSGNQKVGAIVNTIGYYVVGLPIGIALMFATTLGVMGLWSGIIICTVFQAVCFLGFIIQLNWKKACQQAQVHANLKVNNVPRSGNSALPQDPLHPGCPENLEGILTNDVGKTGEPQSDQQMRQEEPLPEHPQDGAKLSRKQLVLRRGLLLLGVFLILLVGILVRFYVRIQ", "assay": "High throughput screen"}, "[2]": {"details": "cited from earlier work"}, "MATE1 [3]": {"biological_target": "T1, MATE1", "format": "cell-based"}, "human OCT2": {"biological_target": "T2, human OCT2 (Homo sapiens, UniProt O15244)", "T2 sequence (O15244 1-555)": "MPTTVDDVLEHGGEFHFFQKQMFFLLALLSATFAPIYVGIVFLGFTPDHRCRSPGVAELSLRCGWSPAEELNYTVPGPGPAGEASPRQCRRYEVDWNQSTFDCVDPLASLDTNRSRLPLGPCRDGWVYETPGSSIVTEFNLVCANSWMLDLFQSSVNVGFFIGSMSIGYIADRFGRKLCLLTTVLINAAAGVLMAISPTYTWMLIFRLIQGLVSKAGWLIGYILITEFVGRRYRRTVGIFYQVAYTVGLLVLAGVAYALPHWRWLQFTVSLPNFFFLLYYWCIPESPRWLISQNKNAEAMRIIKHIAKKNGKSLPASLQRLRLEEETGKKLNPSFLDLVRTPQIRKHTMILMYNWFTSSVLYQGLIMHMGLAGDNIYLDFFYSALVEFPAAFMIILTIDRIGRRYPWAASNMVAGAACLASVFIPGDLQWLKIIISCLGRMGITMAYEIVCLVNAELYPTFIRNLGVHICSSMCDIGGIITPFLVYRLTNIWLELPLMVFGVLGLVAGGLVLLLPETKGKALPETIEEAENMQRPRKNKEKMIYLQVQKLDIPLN", "format": "cell-based"}, "MATE1 [4]": {"biological_target": "T1, MATE1", "assay": "14C-metformin uptake in HEK293 cells stably expressing MATE1"}, "MATE1 [5]": {"biological_target": "T1, MATE1"}, "[6]": {"details": "ref 53 (Micromedex); cited from earlier work"}, "MATE1 [7]": {"biological_target": "T1, MATE1", "assay": "in vitro", "details": "HEK cells stably overexpressing MATE1, pH 7.4"}, "[8]": {"details": "clinical plasma concentration, ref 54-58 (a-e)"}}, "note": "Read-outs that look alike come from different tables or passages of the source."}
{"compound": "COc1ccccc1OCCNCC(O)COc1cccc2[nH]c3ccccc3c12", "note": "(stereo not drawn) [Carvedilol]", "values": [{"measurement": "did not inhibit MATE2-K up to", "setting": "human MATE2-K", "result": "> 500", "unit": "µM"}]}
{"compound": "CN1C[C@H](C(=O)N[C@]2(C)O[C@@]3(O)[C@@H]4CCCN4C(=O)[C@H](Cc4ccccc4)N3C2=O)C[C@@H]2c3cccc4[nH]cc(c34)C[C@H]21", "note": "[Dihydroergotamine]", "values": [{"measurement": "IC50", "setting": "MATE1 [1]", "result": 8, "unit": "µM"}]}
{"compound": "NC1=NCC2c3ccccc3Cc3ccccc3N12", "note": "(stereo not drawn) [Epinastine]", "values": [{"measurement": "IC50", "setting": "MATE1 [1]", "result": 0.6, "unit": "µM"}]}
{"compound": "CC(C)(C)NC(=O)[C@@H]1CN(Cc2cccnc2)CCN1C[C@@H](O)C[C@@H](Cc1ccccc1)C(=O)N[C@H]1c2ccccc2C[C@H]1O", "note": "[Indinavir]", "values": [{"measurement": "Cmax", "setting": "[2]; [8]", "result": 9800, "unit": "nM"}]}
{"compound": "COc1ccc2c(c1OC)C(=O)O[C@@H]2[C@H]1c2c(cc3c(c2OC)OCO3)CCN1C", "note": "[Noscapine]", "values": [{"measurement": "did not inhibit MATE2-K up to", "setting": "human MATE2-K", "result": "> 500", "unit": "µM"}]}
{"compound": "CN1C2CCCC1CC(NC(=O)c1nn(C)c3ccccc13)C2", "note": "(stereo not drawn) [Granisetron]", "values": [{"measurement": "IC50", "setting": "MATE1 [1]", "result": 9.9, "unit": "µM"}]}
{"compound": "C#C[C@]1(O)CC[C@H]2[C@@H]3CCc4cc(O)ccc4[C@H]3CC[C@@]21C", "note": "[Ethinyl estradiol]", "values": [{"measurement": "IC50", "setting": "MATE1 [1]", "result": 13.5, "unit": "µM"}]}
{"compound": "O=C1c2c(O)ccc(O)c2C(=O)c2c(NCCNCCO)ccc(NCCNCCO)c21", "note": "[Mitoxantrone]", "values": [{"measurement": "Cmax", "setting": "[2]; in vivo", "result": 630, "unit": "nM"}]}
{"compound": "CO[C@@H]1[C@@H](O[C@@H]2O[C@H](C)[C@@H](O[C@H]3C[C@@](C)(O)[C@@H](OC(=O)CC(C)C)[C@H](C)O3)[C@H](N(C)C)[C@H]2O)[C@@H](CC=O)C[C@@H](C)[C@@H](O)/C=C/C=C/C[C@@H](C)OC(=O)C[C@H]1O", "note": "[Leucomycin]", "values": [{"measurement": "IC50", "setting": "MATE1 [3]", "result": 11.1, "unit": "µM"}, {"measurement": "IC50", "setting": "human MATE2-K", "result": 125, "unit": "µM"}, {"measurement": "IC50", "setting": "human OCT2", "result": 182, "unit": "µM"}, {"measurement": "IC50", "setting": "MATE1 [1]", "result": 16, "unit": "µM"}, {"measurement": "inhibition at 20 µM", "setting": "MATE1 [1]; human, HEK cells stably overexpressing MATE1, pH 7.4, probe ASP+ (5 µM)", "result": "56 ± 1", "unit": "%"}]}
{"compound": "COc1cc2c3cc1Oc1cc(ccc1O)C[C@@H]1c4c(cc(OC)c(O)c4Oc4ccc(cc4)C[C@@H]3N(C)CC2)CC[N+]1(C)C", "note": "[Tubocurarine]", "values": [{"measurement": "Cmax,unbound /IC50 (MATE1, text)", "setting": "MATE1 [3]", "result": 0.07}, {"measurement": "IC50", "setting": "MATE1 [1]", "result": 1.1, "unit": "µM"}]}
{"compound": "NC(N)=Nc1nc(CSCCC(N)=NS(N)(=O)=O)cs1", "note": "[Famotidine]", "values": [{"measurement": "IC50", "setting": "MATE1 [4]", "result": 0.09, "unit": "µM"}, {"measurement": "Cmax,unbound/ IC50 of MATE1, Metformin", "setting": "MATE1 [4]; ratio, IC50 with 14C-metformin in HEK293-MATE1, threshold ≥ 0.1", "result": 4.34}, {"measurement": "Cmax,unbound/ IC50 of MATE1, ASP^+", "setting": "MATE1 [3]; ratio, IC50 with ASP+ in HEK293-MATE1, clinical relevance threshold ≥ 0.1", "result": 0.51}, {"measurement": "IC50", "setting": "MATE1 [5]", "result": 0.16, "unit": "µM"}, {"measurement": "Cmax,unbound/ IC50 of MATE1, Metformin Polarized Cells", "setting": "MATE1 [5]; ratio, IC50 with 14C-metformin in polarized MDCK-hMATE1, threshold ≥ 0.1", "result": 2.44}, {"measurement": "Cmax", "setting": "[2]; in vivo", "result": 460, "unit": "nM"}]}
{"compound": "CC[C@@]1(O)C(=O)OCc2c1cc1n(c2=O)Cc2cc3c(CN(C)C)c(O)ccc3nc2-1", "note": "[Topotecan]", "values": [{"measurement": "IC50", "setting": "MATE1 [1]", "result": 19.7, "unit": "µM"}]}
{"compound": "COc1ccnc(C[S+]([O-])c2nc3ccc(OC(F)F)cc3[nH]2)c1OC", "note": "(stereo not drawn) [Pantoprazole]", "values": [{"measurement": "Protein Binding [% bound]", "setting": "[6]", "result": 98, "unit": "% bound"}]}
{"compound": "CN(C)c1ccc(/C=C/c2cc[n+](C)cc2)cc1", "note": "[ASP^+, 4-(4-(Dimethylamino)styryl)-N-methylpyridinium iodide]", "values": [{"measurement": "Km at […]", "setting": "MATE1 [7]", "result": 34, "unit": "µM"}]}
{"compound": "Cc1nccn1CC1CCc2c(c3ccccc3n2C)C1=O", "note": "(stereo not drawn) [Ondansetron]", "values": [{"measurement": "Protein Binding [% bound]", "setting": "[6]", "result": 73, "unit": "% bound"}, {"measurement": "Cmax", "setting": "[2]; [8]", "result": 440, "unit": "nM"}]}
{"compound": "N=C(N)c1ccc(OCCCCCOc2ccc(C(=N)N)cc2)cc1", "note": "[Pentamidine]", "values": [{"measurement": "Cmax", "setting": "[2]; in vivo", "result": 730, "unit": "nM"}]}
{"compound": "[H]/N=C(\\N/C(=N/[H])NCCCCCCNC(=N)NC(=N)Nc1ccc(Cl)cc1)Nc1ccc(Cl)cc1", "note": "[Chlorhexidine]", "values": [{"measurement": "IC50", "setting": "MATE1 [1]", "result": 3.1, "unit": "µM"}]}
{"compound": "CCOC(=O)c1ccc(OC(=O)CCCCCNC(=N)N)cc1", "note": "[Gabaxate]", "values": [{"measurement": "IC50", "setting": "MATE1 [1]; read-out: prIC50, predicted IC50 estimated from screening inhibition at 20 μM", "result": 0.8, "unit": "µM"}]}
{"compound": "CCc1c2c(nc3ccc(OC(=O)N4CCC(N5CCCCC5)CC4)cc13)-c1cc3c(c(=O)n1C2)COC(=O)[C@]3(O)CC", "note": "[Irinotecan]", "values": [{"measurement": "Cmax", "setting": "[2]; in vivo", "result": 4600, "unit": "nM"}]}
